Measured values from paper PMC12027992, “New Amidino-Substituted Benzimidazole Derivatives as Human Dipeptidyl Peptidase III Inhibitors: Synthesis, In Vitro Evaluation, QSAR, and Molecular Docking Studies” (International Journal of Molecular Sciences, 2025).
Several values for one entry are separate records, joined by “and”; a condition that tells them apart may be missing. Equal values may be shown once. Where a name gives a salt, the structure may show the parent alone. Residues, ends and D or L forms follow the SMILES beside them.

How the values were obtained:
H460 = test system: H460; design: method as in doi:10.5562/cca3531; conditions: cited from earlier work
HCT116 = test system: HCT116; design: method as in doi:10.5562/cca3531; conditions: cited from earlier work
human DPP III = target: T1, human DPP III (Homo sapiens, UniProt Q9NY33); assay: hDPP III enzyme activity assay (% inhibition and IC50), substrate Arg-Arg-2-naphthylamide; assay type: biochemical; conditions: for IC50: at least seven concentrations, nonlinear regression, three replicates; for log % inh. exp.: logarithm of % inhibition at 30 μmol L^–1; for inhibition at 30 µM: pH 7.4, 30 μmol L^–1 compound, recombinant hDPP III 0.75 nM, Arg-Arg-2-naphthylamide 40 μM, pH 7.4, 37 °C, average of three determinations ± SD
T1 construct: C-terminally truncated human DPP III was expressed and purified as described previously; His-tag (TEV-cleavable) (C, cleaved yes); made in house; host or cells: E. coli BL21-CodonPlus (DE3)-RIL
T1 sequence (Q9NY33 1-726 limits assumed): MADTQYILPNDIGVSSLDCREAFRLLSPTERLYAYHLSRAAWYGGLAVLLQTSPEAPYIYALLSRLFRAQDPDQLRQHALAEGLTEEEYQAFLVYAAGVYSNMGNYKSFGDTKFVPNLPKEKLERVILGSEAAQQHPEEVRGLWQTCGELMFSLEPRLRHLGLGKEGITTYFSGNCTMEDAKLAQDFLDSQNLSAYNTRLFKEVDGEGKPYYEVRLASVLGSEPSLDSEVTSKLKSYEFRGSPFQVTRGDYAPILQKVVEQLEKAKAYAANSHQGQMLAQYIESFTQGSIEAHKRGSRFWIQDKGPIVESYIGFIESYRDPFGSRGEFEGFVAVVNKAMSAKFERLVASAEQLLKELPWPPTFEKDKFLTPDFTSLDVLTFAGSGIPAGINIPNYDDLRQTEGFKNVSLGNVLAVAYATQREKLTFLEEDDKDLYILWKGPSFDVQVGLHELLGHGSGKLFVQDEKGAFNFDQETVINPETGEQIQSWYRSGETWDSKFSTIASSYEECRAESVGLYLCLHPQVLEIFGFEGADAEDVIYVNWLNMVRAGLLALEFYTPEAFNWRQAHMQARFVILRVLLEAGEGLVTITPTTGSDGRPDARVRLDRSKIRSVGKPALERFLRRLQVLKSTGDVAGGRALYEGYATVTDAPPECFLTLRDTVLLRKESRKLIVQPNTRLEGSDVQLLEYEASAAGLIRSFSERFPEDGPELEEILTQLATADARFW
Procedure: C-terminally truncated human DPP III was expressed and purified as described previously. In brief, C-terminal HIS-tagged recombinant human DPP III was expressed in E. coli BL21-CodonPlus (DE3)-RIL cells, Agilent (Santa Clara, CA, USA). Overexpression was induced by 0.25 mM isopropyl-b-D-1-thiogalactopyranoside (IPTG, Fermentas), and the cells were grown for 20 h at 18 °C and 130 rpm. Obtained bacterial cells were lysed by a combination of lysozyme lysis and sonication, then treated with DNase I and centrifuged at 4000× g for 15 min to precipitate the cell debris. The lysate was purified by affinity chromatography on a Ni-NTA column (5 mL prepacked His-trap FF) GE Healthcare (Chicago, IL, USA) using a buffer system with 50 mM Tris- HCl, pH = 8.0, 300 mM NaCl, and increasing imidazole concentrations: 10 mM for lysis, 20 mM for wash, and 300 mM for elution buffer. All hDPP III active fractions were pooled and incubated with TEV protease to remove the HIS-tag. Human DPP III was recovered using flow-through affinity chromatography (TEV protease is His-tagged), and additionally purified on a 16/60 Superdex-200 gel-filtration column GE Healthcare (Chicago, IL, USA). Fractions with hDPP III were desalted on PD-10 columns GE Healthcare (Chicago, IL, USA). Purified protein in 20 mM Tris-HCl buffer pH = 7.4 was stored at -80 °C until use. Recombinant hDPP III (0.75 nM) was preincubated with benzimidazole derivatives (30 μM) first for 10 min at 25 °C and then for 5 min at 37 °C in 50 mM Tris-HCl buffer, pH 7.4. The enzymatic reaction was started with Arg-[…]-naphthylamide (40 μM) as a substrate, and after the 15 min incubation at 37 °C in a water bath, the reaction was stopped, and the absorbance was measured using the spectrophotometric method described by Abramić et al.. All benzimidazole derivatives were prepared daily in dimethyl sulfoxide, and the resulting stock solutions (4 mM) were transparent, without turbidity or solid residue. […] Before the enzyme assay, stock solutions were diluted with 50 mM Tris-HCl buffer, pH 7.4. […] The percentage of enzyme inhibition under at least seven different concentration gradients was imported into GraphPad Prism 10.4.1 software to calculate IC50 values of the compounds using nonlinear regression analysis from the mean inhibitory value of three replicates. The relative occupancy of inhibition for compounds with the same substituent at position 6 of the benzimidazole core was defined as the sum of their % inh., expressed relative to their maximum achievable inhibition, which was set at 100.

MCF-7 = test system: MCF-7; design: method as in doi:10.5562/cca3531; conditions: cited from earlier work
hDPP III = target: hDPP III; design: method as in PMID 18163885; conditions: read-out: inhibition constant (Ki); cited from earlier work

Compound	IC50 (human DPP III)	log % inh. exp. (human DPP III)	inhibition at 30 µM (human DPP III) [%]	antiproliferative activity (H460)	antiproliferative activity (HCT116)	antiproliferative activity (MCF-7)	Ki (hDPP III) [µM]
c1ccc2c(c1)cc(-c1nc3cc(C4=NCCCN4)ccc3[nH]1)c1ccccc12 [c8]		1.71	51.7 ± 0.2				
c1ccc2c(c1)cc(-c1nc3cc(C4=NCCN4)ccc3[nH]1)c1ccccc12 [b2, 5(6)-(2-imidazolinyl)-2-(phenanthren-9-yl)-1H-benzo[d]imidazole]	< 20 µM and 11.1 µM	2.00	≥ 90				
N[C@@H](Cc1ccc(O)cc1)C(=O)N[C@@H](Cc1ccccc1)C(=O)NO [Tyr-Phe-NHOH] (HELM PEPTIDE1{Y.F.[ON[*:1]]}$$$$V2.0)							0.15 ± 0.04
CCN(CC)c1ccc(-c2nc3ccc(C(=N)N)cc3[nH]2)c(O)c1 [a2, 5(6)-amidino-2-[4-(N,N-diethylamino)-2-hydroxyphenyl]benzimidazole hydrochloride]	< 20 µM and 8.44 µM	2.00	≥ 90				
N=C(N)c1ccc2nc(-c3ccc(-c4cccs4)s3)[nH]c2c1 [a4]	< 20 µM and 8.34 µM	2.00	≥ 90				

The next lines start with results.

IC50 (human DPP III)	log % inh. exp. (human DPP III)	inhibition at 30 µM (human DPP III) [%]	Compound	antiproliferative activity (H460)	antiproliferative activity (HCT116)	antiproliferative activity (MCF-7)	Ki (hDPP III) [µM]
< 20 µM and 9.83 µM	1.99	≥ 90	N=C(N)c1ccc2nc(-c3ccc(C(F)(F)F)cc3)[nH]c2c1 [a6]	displayed antiproliferative activity	displayed antiproliferative activity	displayed antiproliferative activity	
< 20 µM and 8.18 µM	2.00	≥ 90	FC(F)(F)c1ccc(-c2nc3ccc(C4=NCCN4)cc3[nH]2)cc1 [b6]	displayed antiproliferative activity	displayed antiproliferative activity	displayed antiproliferative activity	
< 20 µM and 1.03 µM	2.00	≥ 90	Oc1ccc(-c2nc3ccc(C4=NCCN4)cc3[nH]2)c(O)c1O [b13, 5(6)-(4,5-Dihydro-1H-imidazol-3-ium-2-yl)-2-(2,3,4-trihydroxyphenyl)benzimidazole chloride]				
< 20 µM and 4.98 µM	2.00	≥ 90	c1csc(-c2ccc(-c3nc4ccc(C5=NCCN5)cc4[nH]3)s2)c1 [b4]				
